Test results published in ChEMBL document CHEMBL1128002, “Selective inhibitors of protein kinase C in a model of graft-vs-host disease” (Bioorg Med Chem Lett, 1994).
pIC50: −log10 of the molar value.

Tests used:
Rattus norvegicus [1] = organism: Rattus norvegicus; assay: (§1) Inhibitory activity against graft vs host disease in rat.; type: functional
Rattus norvegicus [2] = organism: Rattus norvegicus; assay: as §1; type: functional, organism-based
[3] = (§2) Inhibitory activity against protein kinase C from Jurkat cells.; type: cell-based
[4] = as §2; type: cell-based; parameters: concentration or dose not given beside the values; details: dose or concentration not given here

SMILES | Inhibition (Rattus norvegicus [1]) | pIC50 (Rattus norvegicus [2]) | pIC50 [3] | inhibition [4]
O=C1ON=C(c2cccs2)C1=CC=Cc1ccccc1 | 93% | 5.52 | 6.00 | 
COc1cc(/C=C2\C(=O)ON=C2c2cccs2)cc(OC)c1O | 72% |  | 4.96 | 
CC(C)(C)c1cc(/C=C2\C(=O)ON=C2c2cccs2)cc(C(C)(C)C)c1O |  |  | 4.46 | 
Oc1onc(-c2cccs2)c1/C=C1/C=Nc2ccccc21 |  |  |  | 48%
COc1ccc(/C=C2\C(=O)ON=C2c2cccs2)c(OC)c1 |  |  | < 4.00 | 35%
O=C1ON=C(c2ccccc2)/C1=C/c1ccco1 | 89% | 5.54 | 6.05 | 84%
O=C1ON=C(c2cccs2)/C1=C/c1ccccc1 | 88% | 5.36 | 4.82 | 81%
O=C1ON=C(c2cccs2)/C1=C/c1ccc(F)cc1 | 92% | 5.32 | 5.06 | 98%
Cc1cc(/C=C2\C(=O)ON=C2c2cccs2)cc(C)c1O |  | 5.59 | 5.60 | 
CN(C)c1ccc(/C=C2\C(=O)ON=C2c2cccs2)cc1 | 89% | 5.38 | 5.68 | 88%
COc1ccccc1C1=NOC(=O)/C1=C\c1cccs1 | 66% | 5.15 | 5.92 | 100%
O=C1ON=C(c2cccs2)/C1=C/c1cccs1 | 97% | 5.43 | 6.00 | 100%
O=C1ON=C(c2ccccc2O)/C1=C/c1cccs1 | 20% |  | 4.60 | 
O=C1ON=C(c2ccccc2)/C1=C/c1ccccc1 |  |  | 4.85 | 
O=C1ON=C(c2cccs2)/C1=C/c1ccsc1 | 95% | 5.52 | 5.54 | 100%
CC1=CC(C)=N/C1=C/c1c(-c2cccs2)noc1O |  |  |  | 19%
O=C1ON=C(c2cccs2)/C1=C/c1ccc(O)cc1 | 87% | 5.38 | 5.46 | 93%
O=C1ON=C(c2cccs2)/C1=C/c1ccco1 | 88% | 5.24 | 5.85 | 100%
O=C1ON=C(c2cccs2)/C1=C/c1ccccc1O | 87% | 5.24 | 5.26 | 

SMILES | Inhibition (Rattus norvegicus [1]) | pIC50 (Rattus norvegicus [2]) | pIC50 [3] | inhibition [4]
O=C1ON=C(c2cccs2)/C1=C/c1ccc(O)c(O)c1 | 87% | 5.47 | 5.46 | 
COc1ccc(C2=NOC(=O)/C2=C\c2cccs2)cc1 | 44% | 4.96 | 6.15 | 100%
COc1cc(/C=C2\C(=O)ON=C2c2cccs2)ccc1OC(C)=O | 43% |  | 4.96 | 82%
COc1ccc(OC)c(C2=NOC(=O)/C2=C\c2cccs2)c1 | 59% | 5.10 | 5.72 | 100%
COc1ccc(/C=C2\C(=O)ON=C2c2cccs2)cc1 | 96% | 5.60 | 5.92 | 89%
O=C(O)COc1ccc(/C=C2\C(=O)ON=C2c2cccs2)cc1 | -7% | 4.00 | 5.09 | 
O=C1ON=C(c2ccc([N+](=O)[O-])cc2)/C1=C/c1cccs1 |  |  |  | 0%
O=C1ON=C(c2cccs2)/C1=C/c1cccc(Cl)c1 |  |  | 4.64 | 24%
Oc1onc(-c2cccs2)c1/C=C1\C=CC=N1 |  |  |  | 8.9%
O=C1ON=C(c2cccs2)/C1=C/c1cccc(O)c1 | 58% |  | 5.00 | 
O=C1ON=C(c2cccs2)/C1=C/c1ccc(Br)cc1 | 91% |  | 4.08 | 100%
Nc1ccc(C2=NOC(=O)/C2=C\c2cccs2)cc1 |  |  |  | 0%
O=C1ON=C(c2cccs2)/C1=C/c1ccoc1 | 94% | 5.44 | 5.77 | 100%
CC(=O)Oc1ccc(/C=C2\C(=O)ON=C2c2cccs2)cc1 | 65% | 5.35 | 4.96 | 81%
COc1cccc(/C=C2\C(=O)ON=C2c2cccs2)c1 | 66% |  | 4.66 | 65%
Cc1cc(O)cc(C)c1/C=C1\C(=O)ON=C1c1cccs1 | 88% | 5.80 | 5.28 | 78%
Cn1cc(/C=C2\C(=O)ON=C2c2cccs2)c2ccccc21 |  |  |  | 21%
O=C1ON=C(c2cccs2)/C1=C/c1ccc(Cl)cc1 | 71% | 5.21 | 4.96 | 82%
